# In patent publication US20260176320A1, “MODULATORS OF G-PROTEIN COUPLED RECEPTORS” (priority 2018, published 2026):
# Like-named read-outs stand apart in the source and are kept apart here. Numbered stars: 1 amine (or outer) side, 2 acyl side, 3 side chain; on linkers, the order of the positions; unused ones are H or OH. Square brackets hold non-standard residues; d marks the D form. Side chains are listed from the residue outwards. Peptide text beside a SMILES is read from it. * marks the point of attachment. γGlu = O=C(O)[C@H](CCC(=O)[*:2])N[*:1]; Palmitoyl = CCCCCCCCCCCCCCCC(=O)*; X6 = O=C(CSCC(=O)*)NCCN1CCCCC1=O; Aib = CC(C)(N)C(=O)O
# Assays:
# Assay type in all cases: cell-based
# GLP-1R [1] = biological target: T1, GLP-1R (Homo sapiens, UniProt P43220); test: HitHunter cAMP assay (GLP-1R); conditions: cAMP; for Emax: read-out: (Emax) GLP-1R
# How it was run: (§1)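 cAMP accumulation read by luminescent HitHunter immunocompetition after 30 min room-temperature agonist stimulation. Agonists tested as 22-point twofold dilutions, in duplicate, on 10,000 cells/well in HBSS containing 625 μM IBMX, 10 mM HEPES and 0.2% BSA.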
# GIP-R = biological target: T2, GIP-R (Homo sapiens, UniProt P48546); test: HitHunter cAMP assay (GIP-R); conditions: cAMP; for Emax: read-out: (Emax) GIP-R
# T2 sequence (P48546 22-466): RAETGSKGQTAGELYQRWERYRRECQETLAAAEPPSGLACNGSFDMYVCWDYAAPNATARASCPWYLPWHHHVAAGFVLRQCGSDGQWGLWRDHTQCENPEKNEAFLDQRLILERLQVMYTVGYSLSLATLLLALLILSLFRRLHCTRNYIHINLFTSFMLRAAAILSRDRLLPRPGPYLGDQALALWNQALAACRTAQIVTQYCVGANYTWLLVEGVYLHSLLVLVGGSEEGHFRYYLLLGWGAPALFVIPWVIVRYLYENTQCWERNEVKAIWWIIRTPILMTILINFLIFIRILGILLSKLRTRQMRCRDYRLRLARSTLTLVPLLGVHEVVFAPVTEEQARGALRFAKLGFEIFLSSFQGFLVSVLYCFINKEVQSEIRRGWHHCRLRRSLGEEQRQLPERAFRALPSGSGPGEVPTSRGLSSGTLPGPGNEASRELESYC
# How it was run: as §1
# GLP-1R [2] = biological target: T1, GLP-1R; test: PathHunter β-arrestin assay
# Description: The effects of the chemical entities described herein on β-arrestin signaling and associated downstream processes (e.g., those delineated above) can be assessed using conventional methods, e.g., PathHunter β-arrestin Assay for determining β-arresting coupling (see Examples section). […] It has been shown that b-arrestin coupling is a key strep in receptor internalization and subsequent de-sensitization and attenuation of signaling.
# 5,000 cells were seeded in appropriate cell culture media per well in a low volume 384-well tissue culture plate. The assay plate was incubated with cells overnight at 37° C. and 5% CO2. The media was removed, and 5 μL of appropriate cell culture media containing 0.2% BSA was added. Agonist serial dilutions in a separate 384 well dilution plate in a 22-point series of 2× dilutions of agonist in DMSO were performed as follows. 80 μL of the highest concentration of Agonist/DMSO was added to well No. 1. 40 μL was removed from well No. 1, and added to well No. 2, followed by gentle mixing. […] This process was repeated until well No. 22. Additional serial dilutions for additional agonists were set up in a similar manner. 100 nL of each 2× agonist serial dilution was added in duplicate to the designated agonist rows of the assay plate using the Labcyte ECHO. Assay plate was incubated for 90 minutes at 37° C. and 5% CO2. A stock of Working Detection Solution in a separate 15 ml polypropylene tube was prepared by mixing 19 parts of Cell Assay Buffer, 5 parts of Substrate Reagent 1, 1 part Substrate Reagent 2. […] Plates were spun down briefly. Assay plate was incubated for 3 hour at room temperature in the dark for the immunocompetition reaction to occur. Samples were read on Tecan i-control plate reader using luminescence mode with 100 ms integration time. Data analysis was performed using GraphPad Prism.
# [3] = Table 3, read-out: EC50 GLP-1R/nM
# [4] = Table 3A, read-out: EC50 GLP-1R/nM
# [5] = Table 3, read-out: EC50 GIP-R/nM
# [6] = Table 3A, read-out: EC50 GIP-R/nM
# [7] = PathHunter β-arrestin assay, read-out: β-arrestin activity EC50
# T1 sequence (P43220 24-463): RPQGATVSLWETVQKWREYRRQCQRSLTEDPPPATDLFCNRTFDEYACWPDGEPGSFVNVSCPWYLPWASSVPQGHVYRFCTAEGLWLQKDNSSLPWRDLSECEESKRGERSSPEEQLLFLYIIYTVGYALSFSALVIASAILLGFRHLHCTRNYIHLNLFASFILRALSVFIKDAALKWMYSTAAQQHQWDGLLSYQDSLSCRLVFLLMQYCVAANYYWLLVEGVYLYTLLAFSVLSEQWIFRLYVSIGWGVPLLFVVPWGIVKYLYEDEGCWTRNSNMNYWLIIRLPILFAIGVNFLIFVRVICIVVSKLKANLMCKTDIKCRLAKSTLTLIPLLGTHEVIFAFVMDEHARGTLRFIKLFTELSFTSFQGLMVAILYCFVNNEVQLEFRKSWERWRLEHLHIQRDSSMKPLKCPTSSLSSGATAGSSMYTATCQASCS
Compound,Emax (GLP-1R [1]; Table 3) [%],EC50 (GLP-1R [1]; [3]) [nM],Emax (GLP-1R [1]; Table 3A) [%],EC50 (GLP-1R [1]; [4]) [nM],Emax (GIP-R; Table 3) [%],EC50 (GIP-R; [5]) [nM],Emax (GIP-R; Table 3A) [%],EC50 (GIP-R; [6]) [nM],EC50 (GLP-1R [2]; [7]) [nM],"EC50 (GLP-1R [1]; EC50 GLP-1R/nM, Table 3) [nM]","EC50 (GLP-1R [1]; EC50 GLP-1R/nM, Table 3A) [nM]","EC50 (GIP-R; EC50 GIP-R/nM, Table 3) [nM]","Emax at 1 µM (GIP-R; read-out: (Emax) GIP-R at 1 μM, Table 3, at 1 μM) [%]","EC50 (GIP-R; read-out: EC50 GIP-R/nM, Table 3A) [nM]",EC50 (GLP-1R [2]) [nM],"EC50 (GIP-R; EC50 GIP-R/nM, Table 3A) [nM]"
CC[C@H](C)[C@H](NC(=O)[C@H](CO)NC(=O)[C@H](Cc1ccc(O)cc1)NC(=O)[C@H](CC(=O)O)NC(=O)[C@H](CO)NC(=O)[C@@H](NC(=O)[C@H](Cc1ccccc1)NC(=O)[C@@H](NC(=O)CNC(=O)[C@H](CCC(=O)O)NC(=O)CCCCC(=O)NCCN1C(=O)CSC1=O)[C@@H](C)O)[C@@H](C)O)C(=O)N[C@@H](Cc1ccc(O)cc1)C(=O)N[C@@H](CC(C)C)C(=O)N[C@@H](CC(=O)O)C(=O)N[C@@H](CCCCN)C(=O)N[C@@H](CCC(N)=O)C(=O)N[C@@H](C)C(=O)N[C@@H](C)C(=O)NC(C)(C)C(=O)N[C@@H](CCC(=O)O)C(=O)N[C@@H](Cc1ccccc1)C(=O)N[C@H](C(=O)N[C@@H](CC(N)=O)C(=O)N[C@@H](Cc1c[nH]c2ccccc12)C(=O)N[C@@H](CC(C)C)C(=O)N[C@@H](CC(C)C)C(=O)N[C@@H](C)C(=O)NCC(=O)NCC(=O)N1CCC[C@H]1C(=O)N[C@@H](CO)C(=O)N[C@@H](CO)C(=O)NCC(=O)N[C@@H](C)C(=O)N1CCC[C@H]1C(=O)N1CCC[C@H]1C(=O)N1CCC[C@H]1C(=O)N[C@@H](CO)C(=O)N[C@@H](CCCCN)C(N)=O)C(C)C [Compound 191],97,1 to 10,97,1 to 10,68,10 to 100,68,10 to 100,> 1000,,,,,,,
CC[C@H](C)[C@H](NC(=O)[C@H](CO)NC(=O)[C@H](Cc1ccc(O)cc1)NC(=O)[C@H](CC(=O)O)NC(=O)[C@H](CO)NC(=O)[C@@H](NC(=O)[C@H](Cc1ccccc1)NC(=O)[C@@H](NC(=O)CNC(=O)[C@H](CCC(=O)O)NC(=O)CCCCCCN1C(=O)CSC1=O)[C@@H](C)O)[C@@H](C)O)C(=O)N[C@@H](Cc1ccc(O)cc1)C(=O)N[C@@H](CC(C)C)C(=O)N[C@@H](CC(=O)O)C(=O)N[C@@H](CCCCN)C(=O)N[C@@H](CCC(N)=O)C(=O)N[C@@H](C)C(=O)N[C@@H](C)C(=O)NC(C)(C)C(=O)N[C@@H](CCC(=O)O)C(=O)N[C@@H](Cc1ccccc1)C(=O)N[C@H](C(=O)N[C@@H](CC(N)=O)C(=O)N[C@@H](Cc1c[nH]c2ccccc12)C(=O)N[C@@H](CC(C)C)C(=O)N[C@@H](CC(C)C)C(=O)N[C@@H](C)C(=O)NCC(=O)NCC(=O)N1CCC[C@H]1C(=O)N[C@@H](CO)C(=O)N[C@@H](CO)C(=O)NCC(=O)N[C@@H](C)C(=O)N1CCC[C@H]1C(=O)N1CCC[C@H]1C(=O)N1CCC[C@H]1C(=O)N[C@@H](CO)C(=O)N[C@@H](CCCCN)C(N)=O)C(C)C [Compound 176],92,,92,,,,,,,10 to 100,10 to 100,> 1000,1.8,> 1000,> 1000,
CCCCCCCCCCCCCCCC(=O)N[C@@H](CCC(=O)NCCCC[C@H](NC(=O)[C@H](CO)NC(=O)[C@@H]1CCCN1C(=O)[C@@H]1CCCN1C(=O)[C@@H]1CCCN1C(=O)[C@H](C)NC(=O)CNC(=O)[C@H](CO)NC(=O)[C@H](CO)NC(=O)[C@@H]1CCCN1C(=O)CNC(=O)CNC(=O)[C@H](C)NC(=O)[C@H](CC(C)C)NC(=O)[C@H](CC(C)C)NC(=O)[C@H](Cc1c[nH]c2ccccc12)NC(=O)[C@H](CC(N)=O)NC(=O)[C@@H](NC(=O)[C@H](Cc1ccccc1)NC(=O)[C@H](CCC(=O)O)NC(=O)C(C)(C)NC(=O)[C@H](C)NC(=O)[C@H](C)NC(=O)[C@H](CCC(N)=O)NC(=O)[C@H](CCCCN)NC(=O)[C@H](CC(=O)O)NC(=O)[C@H](CC(C)C)NC(=O)[C@H](Cc1ccc(O)cc1)NC(=O)[C@@H](NC(=O)[C@H](CO)NC(=O)[C@H](Cc1ccc(O)cc1)NC(=O)[C@H](CC(=O)O)NC(=O)[C@H](CO)NC(=O)[C@@H](NC(=O)[C@H](Cc1ccccc1)NC(=O)[C@@H](NC(=O)CNC(=O)[C@H](CC(=O)O)NC(=O)CSCC(=O)NCCN1CCCCC1=O)[C@@H](C)O)[C@@H](C)O)[C@@H](C)CC)C(C)C)C(N)=O)C(=O)O [Compound 217] (X6-DGTFTSDYSIYLDKQAA[Aib]EFVNWLLAGGPSSGAPPPSK([γGlu-Palmitoyl])-NH2),,,97,< 0.1,,,58,1 to 10,> 1000,,,,,,,
CCCCCCCCCCCCCCCC(=O)NCCCC[C@H](NC(=O)[C@H](CO)NC(=O)[C@@H]1CCCN1C(=O)[C@@H]1CCCN1C(=O)[C@@H]1CCCN1C(=O)[C@H](C)NC(=O)CNC(=O)[C@H](CO)NC(=O)[C@H](CO)NC(=O)[C@@H]1CCCN1C(=O)CNC(=O)CNC(=O)[C@H](C)NC(=O)[C@H](CC(C)C)NC(=O)[C@H](CC(C)C)NC(=O)[C@H](Cc1c[nH]c2ccccc12)NC(=O)[C@H](CC(N)=O)NC(=O)[C@@H](NC(=O)[C@H](Cc1ccccc1)NC(=O)[C@H](CCC(=O)O)NC(=O)C(C)(C)NC(=O)[C@H](C)NC(=O)[C@H](C)NC(=O)[C@H](CCC(N)=O)NC(=O)[C@H](CCCCN)NC(=O)[C@H](CC(=O)O)NC(=O)[C@H](CC(C)C)NC(=O)[C@H](Cc1ccc(O)cc1)NC(=O)[C@@H](NC(=O)[C@H](CO)NC(=O)[C@H](Cc1ccc(O)cc1)NC(=O)[C@H](CC(=O)O)NC(=O)[C@H](CO)NC(=O)[C@@H](NC(=O)[C@H](Cc1ccccc1)NC(=O)[C@@H](NC(=O)CNC(=O)[C@H](CCC(=O)O)NC(=O)CSCC(=O)NCCN1C(=O)CSC1=O)[C@@H](C)O)[C@@H](C)O)[C@@H](C)CC)C(C)C)C(N)=O [Compound 60],98,0.1 to 1,98,0.1 to 1,37,1 to 10,37,1 to 10,> 1000,,,,,,,
CC[C@H](C)[C@H](NC(=O)[C@H](CO)NC(=O)[C@H](Cc1ccc(O)cc1)NC(=O)[C@H](CC(=O)O)NC(=O)[C@H](CO)NC(=O)[C@@H](NC(=O)[C@H](Cc1ccccc1)NC(=O)[C@@H](NC(=O)CNC(=O)[C@H](CCC(=O)O)NC(=O)CCC(=O)NCCN1C(=O)c2ccccc2C1=O)[C@@H](C)O)[C@@H](C)O)C(=O)N[C@@H](Cc1ccc(O)cc1)C(=O)N[C@@H](CC(C)C)C(=O)N[C@@H](CC(=O)O)C(=O)N[C@@H](CCCCN)C(=O)N[C@@H](CCC(N)=O)C(=O)N[C@@H](C)C(=O)N[C@@H](C)C(=O)NC(C)(C)C(=O)N[C@@H](CCC(=O)O)C(=O)N[C@@H](Cc1ccccc1)C(=O)N[C@H](C(=O)N[C@@H](CC(N)=O)C(=O)N[C@@H](Cc1c[nH]c2ccccc12)C(=O)N[C@@H](CC(C)C)C(=O)N[C@@H](CC(C)C)C(=O)N[C@@H](C)C(=O)NCC(=O)NCC(=O)N1CCC[C@H]1C(=O)N[C@@H](CO)C(=O)N[C@@H](CO)C(=O)NCC(=O)N[C@@H](C)C(=O)N1CCC[C@H]1C(=O)N1CCC[C@H]1C(=O)N1CCC[C@H]1C(=O)N[C@@H](CO)C(=O)N[C@@H](CCCCN)C(N)=O)C(C)C [Compound 187],89,,89,,58,,58,,,10 to 100,10 to 100,10 to 100,,,> 1000,10 to 100
